Experimental data published in paper PMC9114115, “Property space mapping of Pseudomonas aeruginosa permeability to small molecules” (Scientific Reports, 2022).
“And” between values parts separate entries of the source, which are not always exact repeats. Identical values can stand only once. Counter-ions that a name gives are not always drawn. Like-named read-outs stand apart in the source and are kept apart here.

Tests used:
P. aeruginosa PAO1 = assay: MIC by two-fold dilution, wild type PAO1; assay type: cell-based, Pseudomonas aeruginosa; conditions: Pseudomonas aeruginosa
Experimental: (§1) In all experiments, P. aeruginosa PAO1-Pore (PAO1 attTn7::PLAC-fhuA) and PΔ3-Pore (ΔmexAB ΔmexCD ΔmexXY attTn7::PLAC-fhuA) strains were used[29]. Strains were routinely grown in Luria–Bertani (LB) or MOPS-M9 medium at 37 °C with aeration. MICs shown in Tables 1 and 2 were determined by a two-fold dilution method in LB broth and MOPS-M9 medium, respectively, following the previously described protocol.

P. aeruginosa PAO1-Pore = assay: MIC by two-fold dilution, hyperporinated PAO1-Pore; assay type: cell-based, Pseudomonas aeruginosa; conditions: for MICs: PAO1-Pore, LB broth, Table S2; for MIC: Pseudomonas aeruginosa, PAO1, read-out: MICs
Experimental: as §1

P. aeruginosa PΔ3 = assay: microbe, parasite or virus in culture; assay type: cell-based, Pseudomonas aeruginosa; conditions: Pseudomonas aeruginosa, read-out: MICs
Experimental: as §1

P. aeruginosa PΔ3-Pore = assay: MIC by two-fold dilution, barrierless PΔ3-Pore; assay type: cell-based, Pseudomonas aeruginosa; conditions: for MIC: Pseudomonas aeruginosa, read-out: MICs, P∆3-Pore, MOPS-M9 medium; for MICs: P∆3-Pore, LB broth, Table S2
Experimental: as §1

P. aeruginosa PAO1 cells = assay: LC–MS quantification of intracellular accumulation, PAO1; conditions: 10-80 µM; for Concentration slopes of accumulation, PAO1_1 min: 1 min incubation; for Concentration slopes of accumulation, PAO1_40 min: 40 min incubation;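 on all read-outs here: slope of accumulation versus external concentration fitted as a line through zero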
Experimental: (§2) PAO1-Pore and PΔ3-Pore were grown at 37 °C overnight with shaking at 225 rpm in 50 mM MOPS-M9 (pH 7.2) Minimal Medium supplemented with 1% glycerol[42],[43].
(§3) The next day, cells were sub-cultured (1.5:100) in fresh MOPS-M9 medium and grown for 16 h. The cultures were then split into two flasks and one of them was induced with 0.1 mM IPTG. Cells incubated for additional 4 h until OD600 reached ~ 1.0 and harvested by centrifugation at 3,275xg for 20 min in RT, washed and concentrated 10X in the spent medium. Assays were performed in 96-well plates in a final volume of […]. Cells were incubated with 10, 20, 40, 80 µM of compounds and after 1- and 40-min incubation at RT, 100 µL cell aliquots were collected by vacuum filtration onto 1.0 µm Glass Fiber Type B filters. For no-cell controls, compounds were diluted to 10, 20, 40, 80 µM final concentration in the same medium, incubated for 1 min and 40 min and filtered onto the same plates. The cell loaded and cell-free filters were dried, removed from plates and placed into 100% methanol at -80 °C for at least 10 min. Filter-bound material was extracted by water bath sonication for 1 min. Cell and filter debris were separated by ultracentrifugation at 45,000 rpm (TLA55 rotor, Beckman) for 8 min at 16 °C and the pellet re-extracted with 80% methanol in water by sonication for 15 min followed by ultracentrifugation at the same conditions. Supernatants from two extractions were combined. For the compound quantification, 5 µL of solution was analyzed in triplicate.
(§4) Calibration curves for MS analyses of compounds were generated in the same experiment by mixing compound at increasing concentrations with the sonicated PAO1 cell extracts. […] Azithromycin was used as a positive control in all experiments.
(§5) Samples were processed in positive ion mode. An Eclipse plus C18 Rapid Resolution HD column (1.8 μm, 2.1 × 50 mm, Agilent, USA) was used for separation. The flow rate was 0.6 mL/min using the following gradient: 0 to 1 min (0- 20% ACN), 1 to 4 min (20- 80% ACN), 4 to 5.1 min (80–100% ACN), 5.1 to 6.30 (100% ACN). Solvents contained 0.1% formic acid to promote positive ion formation in the electrospray. […] Data were analyzed using Agilent Masshunter workstation quantitative analysis v. B.10 software.

[1] = test system: P. aeruginosa PAO1-Pore cells; assay: LC–MS quantification of intracellular accumulation, PAO1-Pore; conditions: 10-80 µM; for Concentration slopes of accumulation, PAO1-Pore_1 min: 1 min incubation; for Concentration slopes of accumulation, PAO1-Pore_40 min: 40 min incubation;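 on all read-outs here: slope of accumulation versus external concentration fitted as a line through zero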
Experimental: as §2, §3, §4, §5

P. aeruginosa PΔ3 cells = conditions: 10-80 µM; for Concentration slopes of accumulation, PΔ3_1 min: 1 min incubation; for Concentration slopes of accumulation, PΔ3_40 min: 40 min incubation;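 on all read-outs here: slope of accumulation versus external concentration fitted as a line through zero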
Experimental: as §2, §3, §4, §5

[2] = test system: P. aeruginosa PΔ3-Pore cells; assay: LC–MS quantification of intracellular accumulation, PΔ3-Pore; conditions: 10-80 µM; for Concentration slopes of accumulation, PΔ3-Pore_1 min: 1 min incubation; for Concentration slopes of accumulation, PΔ3-Pore_40min: 40 min incubation;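 on all read-outs here: slope of accumulation versus external concentration fitted as a line through zero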
Experimental: as §2, §3, §4, §5

P. aeruginosa = conditions: sheet "Good" permeators; all listed compounds are good permeators
Experimental: The measured levels of compound accumulation were analyzed using machine learning to determine which features of the compounds are most important for enabling their cellular accumulation and to determine their optimal values. […] To accentuate the permeability aspect, the accumulation slopes in efflux-deficient and hyperporinated strains were normalized to those in the parental PAO1 strain.
To help visualize the data, we performed a principal component (PC) decomposition of the data.

[3] = PAO1, MOPS-M9 medium, read-out: MICs

Row | Compound | MIC (P. aeruginosa PAO1; [3]) | MICs (P. aeruginosa PAO1-Pore) | MIC (P. aeruginosa PAO1-Pore) | MIC (P. aeruginosa PΔ3) | MIC (P. aeruginosa PΔ3-Pore) | MICs (P. aeruginosa PΔ3-Pore) | Concentration slopes of accumulation, PAO1_1 min (P. aeruginosa PAO1 cells) | Concentration slopes of accumulation, PAO1_40 min (P. aeruginosa PAO1 cells) | Concentration slopes of accumulation, PAO1-Pore_1 min [1] | Concentration slopes of accumulation, PAO1-Pore_40 min [1] | Concentration slopes of accumulation, PΔ3_1 min (P. aeruginosa PΔ3 cells) | Concentration slopes of accumulation, PΔ3_40 min (P. aeruginosa PΔ3 cells) | Concentration slopes of accumulation, PΔ3-Pore_1 min [2] | Concentration slopes of accumulation, PΔ3-Pore_40min [2] | MIC (P. aeruginosa PAO1; PAO1, read-out: MICs) | Cluster of the identified "good" permeators (P. aeruginosa)
1 | COc1c(N2C[C@@H]3CCCN[C@@H]3C2)c(F)cc2c(=O)c(C(=O)O)cn(C3CC3)c12 [OU-0000626, MOXIFLOXACIN HYDROCHLORIDE] | 2.5 µM and 1.1 µg/mL | 0.39 | 0.03 µg/mL | 0.27 µg/mL | 0.0313 µM and 0.01 µg/mL | 0.024 | 1.19 | 2.06 | 3.02 | 7.25 | 1.39 | 2.61 | 2.26 | 4.78 |  | 
2 | COc1cnc(NS(=O)(=O)c2ccc(N)cc2)nc1 [OU-0000694] |  |  | 12.5 µM and 3.5 µg/mL | 25 µM and 7 µg/mL | 6.25 µM and 1.75 µg/mL |  | 2.18 | 1.74 | 3.10 | 2.35 | 0.87 | 1.82 | 3.61 | 3.14 | > 200 µM and > 56.1 µg/mL | 
3 | CCn1cc(C(=O)O)c(=O)c2cc3c(cc21)OCO3 [OU-0000621, OXOLINIC ACID] | 20 µM and 5.2 µg/mL | 6.25 | 0.625 µM and 0.16 µg/mL | 2.5 µM and 0.65 µg/mL | 0.078 µM and 0.02 µg/mL | 0.097 | 5.93 | 6.11 | 8.17 | 6.63 | 5.83 | 6.58 | 8.75 | 6.70 |  | 
4 | Nc1ccc(S(=O)(=O)Nc2nccs2)cc1 [Sulfathiazole] | 50 µM and 12.8 µg/mL |  | 3.2 µM and 0.8 µg/mL | 6.25 µM and 1.6 µg/mL | 1.6 µM and 0.4 µg/mL |  |  |  |  |  |  |  |  |  |  | 
5 | COc1cc(NS(=O)(=O)c2ccc(N)cc2)nc(OC)n1 [Sulfadimethoxine] |  |  | 25 µM and 7.8 µg/mL | 200 µM and 62.1 µg/mL | 1.6 µM and 0.5 µg/mL |  |  |  |  |  |  |  |  |  | > 200 µM and 62.1 µg/mL | 
6 | Nc1ccc(S(=O)(=O)Nc2ccnn2-c2ccccc2)cc1 [Sulfaphenazole] | > 200 µM and > 62.9 µg/mL |  | 12.5 µM and 3.9 µg/mL | 200 µM and 62.9 µg/mL | 3.2 µM and 1 µg/mL |  |  |  |  |  |  |  |  |  |  | 
7 | COc1cccc2c1C(=O)c1c(O)c3c(c(O)c1C2=O)C[C@@](O)(C(=O)CO)C[C@@H]3O[C@H]1C[C@H](N)[C@H](O)[C@H](C)O1 [OU-0000835, Doxorubicin] | 200 µM and 109 µg/mL | 100 | 12.5 µM and 6.8 µg/mL | 25 µM and 13.6 µg/mL | 3.2 µM and 1.7 µg/mL | 25 | 1.38 | 0.84 | 3.78 |  | 1.32 | 1.10 | 1.89 | 2.13 |  | 
8 | O=C1N[C@@H](Cc2c[nH]c3ccccc23)C(=O)N2CCC[C@@H]12 [OU-0032512] |  |  |  |  |  |  |  |  | 3.51 | 2.49 | 2.98 | 3.06 | 2.90 | 2.97 |  | 1
9 | CCN1CCN(c2cc3c(cc2F)c(=O)c(C(=O)O)cn3C2CC2)CC1 [OU-0000620, ENROFLOXACIN] | 2 µM and 0.7 µg/mL | 0.25 | 0.0625 µM and 0.02 µg/mL | 0.5 µM and 0.18 µg/mL | 0.016 µM and 0.01 µg/mL | 0.0039 | 18.49 | 16.52 | 26.71 | 27.91 | 14.05 | 13.99 | 26.71 | 29.82 |  | 
10 | CN1CCN(c2cc3c(cc2F)c(=O)c(C(=O)O)cn3-c2ccc(F)cc2)CC1 [OU-0000624, DIFLOXACIN] | 2.5 µM and 1.1 µg/mL | 0.39 | 0.0625 µM and 0.03 µg/mL | 0.313 µM and 0.14 µg/mL | 0.0313 µM and 0.01 µg/mL | 0.097 | 3.78 | 6.48 | 8.04 | 11.39 | 4.42 | 5.02 | 6.73 | 8.21 |  | 
11 | Cc1noc(NS(=O)(=O)c2ccc(N)cc2)c1C [Sulfisoxazole] | > 200 µM and > 53.7 µg/mL |  | > 200 µM | > 200 µM | > 200 µM |  |  |  |  |  |  |  |  |  |  | 
12 | CC1CCc2c(N3CCC(O)CC3)c(F)cc3c(=O)c(C(=O)O)cn1c23 (stereo not drawn) [OU-0000628, nadifloxacin] | 5 µM and 1.8 µg/mL | 0.39 | 0.0625 µM and 0.02 µg/mL | 0.625 µM and 0.23 µg/mL | 0.0156 µM and 0.01 µg/mL | 0.0015 | 6.36 | 6.93 | 11.41 | 12.74 | 9.00 | 9.79 | 19.74 | 19.09 |  | 
13 | C[C@H]1COc2c(N3CCN(C)CC3)c(F)cc3c(=O)c(C(=O)O)cn1c23 [OU-0000806, Levofloxacin] | 0.5 µM and 0.18 µg/mL | 0.25 | 0.031 µM and 0.011 µg/mL | 0.25 µM and 0.2 µg/mL | 0.008 µM and 0.003 µg/mL | 0.0039 | 3.66 | 5.59 | 6.98 | 7.94 | 2.43 | 5.63 | 3.52 | 5.77 |  | 
